In paper PMC8267566, “Human GPR17 missense variants identified in metabolic disease patients have distinct downstream signaling profiles” (The Journal of Biological Chemistry, 2021):
Read-outs that look alike come from different tables or passages of the source.

Columns and labels:
Type in all cases: cell-based
hGPR17L-WT [1] = molecular target: T1, hGPR17L-WT (Homo sapiens, UniProt Q13304)
T1 construct: expressed in transfected cells; host or cells: HEK293 (ATCC CRL-1573), transient transfection of pcDNA3-HA-hGPR17L
T1 sequence (Q13304 whole entry): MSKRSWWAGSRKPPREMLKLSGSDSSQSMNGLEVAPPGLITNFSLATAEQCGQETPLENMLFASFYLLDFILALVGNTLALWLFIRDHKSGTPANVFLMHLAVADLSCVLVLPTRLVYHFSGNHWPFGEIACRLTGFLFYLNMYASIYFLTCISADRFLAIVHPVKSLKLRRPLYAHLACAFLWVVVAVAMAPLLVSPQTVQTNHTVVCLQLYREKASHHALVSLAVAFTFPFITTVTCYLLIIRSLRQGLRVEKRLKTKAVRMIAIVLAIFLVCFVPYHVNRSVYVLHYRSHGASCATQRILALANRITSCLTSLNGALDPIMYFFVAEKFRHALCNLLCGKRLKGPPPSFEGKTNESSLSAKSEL
Description: (§1) For agonist-mediated stimulatory cAMP assays, HEK293 cells were seeded and transfected as noted above. Cells were treated with 100 ng/ml pertussis toxin overnight (Sigma-Aldrich P2980). Twenty-four hours posttransfection, growth medium and transfection mix were aspirated and replaced with 100 μl/well equilibration medium (2% Promega GloSensor cAMP reagent [E1291; Promega Corporation] in CO2-independent medium) containing 100 ng/ml pertussis toxin and incubated at room temperature for 2 h. Baseline luminescence was read every 2 min on a Molecular Devices SpectraMax iD5 plate reader (Molecular Devices) at ambient room temperature for 8 min. Subsequently, 10 μl/well MDL29,951 diluted in assay buffer (HBSS, 20 mM HEPES, pH 7.2) was added and luminescence was read every 2 min for 16 min. Within each well, the luminescence values for each time point were normalized to their average baseline luminescence values. The average luminescence values for the time points between 8 and 16 min after MDL29,951 addition were expressed as a percentage of the maximum response observed for hGPR17L-WT.

hGPR17L-D105N [2] = molecular target: T2, hGPR17L-D105N (Homo sapiens, UniProt Q13304, D105N)
T2 construct: expressed in transfected cells; host or cells: HEK293 (ATCC CRL-1573), transient transfection
T2 sequence (Q13304 whole entry D105N): as the sequence (Q13304 whole entry) above, with D105N counted along it
Description: as §1

hGPR17L-G136S [3] = molecular target: T3, hGPR17L-G136S (Homo sapiens, UniProt Q13304, G136S)
T3 construct: expressed in transfected cells; host or cells: HEK293 (ATCC CRL-1573), transient transfection
T3 sequence (Q13304 whole entry G136S): as the sequence (Q13304 whole entry) above, with G136S counted along it
Description: as §1

hGPR17L-V96M [4] = molecular target: T4, hGPR17L-V96M (Homo sapiens, UniProt Q13304, V96M)
T4 construct: expressed in transfected cells; host or cells: HEK293 (ATCC CRL-1573), transient transfection
T4 sequence (Q13304 whole entry V96M): as the sequence (Q13304 whole entry) above, with V96M counted along it
Description: as §1

hGPR17L-WT [5] = molecular target: T1, hGPR17L-WT; assay: Calcium flux assay
Description: (§2) HEK293 cells were seeded at 20,000 cells/well into black, optical bottom, poly-D-lysine coated 96-well plates. The following day, cells were transiently transfected with pcDNA3-HA-hGPR17L or pcDNA3-HA-hGPR17L-variants using lipofectamine 3000. Twenty-four hours after transfection, the growth medium and transfection mix were decanted and 100 μl/well assay buffer (HBSS, 20 mM HEPES, pH 7.2) and 100 μl/well Calcium 6 loading dye (R8190; Molecular Devices) were added to the plate and incubated at 37 °C, 5% CO2 for 1 h 45 min. Plate was allowed to equilibrate to room temperature on the bench top for 30 min. MDL29,951 diluted in assay buffer was added to the wells and fluorescence (485 nm excitation, 525 nm emission, and 515 nm automatic emission cutoff) was measured using a Molecular Devices FlexStation3 (Molecular Devices). For experiments with pertussis toxin, cells were pretreated with 100 ng/ml pertussis toxin overnight and 100 ng/ml pertussis toxin was included with Calcium 6 loading dye for calcium flux assays.

hGPR17L-F43L = molecular target: T5, hGPR17L-F43L (Homo sapiens, UniProt Q13304, F43L); assay: Calcium flux assay
T5 construct: expressed in transfected cells; host or cells: HEK293 (ATCC CRL-1573), transient transfection
T5 sequence (Q13304 whole entry F43L): as the sequence (Q13304 whole entry) above, with F43L counted along it
Description: as §2

hGPR17L-G354V = molecular target: T6, hGPR17L-G354V (Homo sapiens, UniProt Q13304, G354V); assay: Calcium flux assay
T6 construct: expressed in transfected cells; host or cells: HEK293 (ATCC CRL-1573)
T6 sequence (Q13304 whole entry G354V): as the sequence (Q13304 whole entry) above, with G354V counted along it
Description: as §2

hGPR17L-R301H = molecular target: T7, hGPR17L-R301H (Homo sapiens, UniProt Q13304, R301H); assay: Calcium flux assay
T7 construct: expressed in transfected cells; host or cells: HEK293 (ATCC CRL-1573)
T7 sequence (Q13304 whole entry R301H): as the sequence (Q13304 whole entry) above, with R301H counted along it
Description: as §2

hGPR17L-D105N [6] = molecular target: T2, hGPR17L-D105N; assay: Calcium flux assay
Description: as §2

hGPR17L-A131T = molecular target: T8, hGPR17L-A131T (Homo sapiens, UniProt Q13304, A131T); assay: Calcium flux assay
T8 construct: expressed in transfected cells; host or cells: HEK293 (ATCC CRL-1573), transient transfection
T8 sequence (Q13304 whole entry A131T): as the sequence (Q13304 whole entry) above, with A131T counted along it
Description: as §2

hGPR17L-R248Q = molecular target: T9, hGPR17L-R248Q (Homo sapiens, UniProt Q13304, R248Q); assay: Calcium flux assay
T9 construct: expressed in transfected cells; host or cells: HEK293 (ATCC CRL-1573), transient transfection
T9 sequence (Q13304 whole entry R248Q): as the sequence (Q13304 whole entry) above, with R248Q counted along it
Description: as §2

hGPR17L-V103M = molecular target: T10, hGPR17L-V103M (Homo sapiens, UniProt Q13304, V103M); assay: Calcium flux assay
T10 construct: expressed in transfected cells; host or cells: HEK293 (ATCC CRL-1573), transient transfection
T10 sequence (Q13304 whole entry V103M): as the sequence (Q13304 whole entry) above, with V103M counted along it
Description: as §2

hGPR17L-G136S [7] = molecular target: T3, hGPR17L-G136S; assay: Calcium flux assay; conditions: HEK293, read-out: calcium response, % of the maximum response observed for hGPR17L-WT
Description: as §2

hGPR17L-V96M [8] = molecular target: T4, hGPR17L-V96M; assay: Calcium flux assay
Description: as §2

[9] = read-out: Ca2+ EC50, HEK293, calcium mobilization

## O=C(O)CCc1c(C(=O)O)[nH]c2cc(Cl)cc(Cl)c12 [MDL29,951]
hGPR17L-WT [1]
  Stimulatory cAMP Efficacy (% of WT Emax): 100 % of WT Emax
  Stimulatory cAMP pEC50 ± SEM: 5.18 ± 0.04
  maximum stimulatory cAMP response: 1.21 ± 0.24 ΔRLU/RLU
hGPR17L-WT [1]; read-out: Stimulatory cAMP EC50
  EC50: 6600 nM
hGPR17L-D105N [2]
  stimulatory cAMP response: unable to promote stimulatory cAMP responses
hGPR17L-G136S [3]
  stimulatory cAMP response: unable to promote stimulatory cAMP responses
hGPR17L-V96M [4]
  stimulatory cAMP response: unable to promote stimulatory cAMP responses
hGPR17L-WT [5]
  calcium flux efficacy with pertussis toxin (% of control pretreatment): 82 ± 1.4 % of control pretreatment
  calcium flux potency with pertussis toxin, fold shift in EC50: approximately 2.5 fold
hGPR17L-WT [5]; hGPR17L-WT, HEK293
  Ca2+ Efficacy (% of WT Emax): 100 % of WT Emax
  maximum stimulation of calcium mobilization: 1.51 ± 0.14 Peak ΔF/F
hGPR17L-WT [5]; hGPR17L-WT, HEK293, calcium mobilization
  Ca2+ pEC50 ± SEM: 7.09 ± 0.11
hGPR17L-WT [5]; read-out: Ca2+ EC50, hGPR17L-WT, HEK293, calcium mobilization
  EC50: 82 nM
hGPR17L-F43L; HEK293
  Ca2+ Efficacy (% of WT Emax): 97 ± 3.9 % of WT Emax
hGPR17L-F43L; HEK293, calcium mobilization
  Ca2+ pEC50 ± SEM: 7.25 ± 0.19
hGPR17L-F43L; [9]
  EC50: 57 nM
hGPR17L-G354V; HEK293
  Ca2+ Efficacy (% of WT Emax): 92 ± 2.6 % of WT Emax
hGPR17L-G354V; HEK293, calcium mobilization
  Ca2+ pEC50 ± SEM: 7.05 ± 0.29
hGPR17L-G354V; [9]
  EC50: 89 nM
hGPR17L-R301H; HEK293
  Ca2+ Efficacy (% of WT Emax): 85 ± 3.6 % of WT Emax
hGPR17L-R301H; HEK293, calcium mobilization
  Ca2+ pEC50 ± SEM: 6.74 ± 0.14
hGPR17L-R301H; [9]
  EC50: 180 nM
hGPR17L-D105N [6]
  calcium mobilization in the presence of pertussis toxin: reduced calcium mobilization
hGPR17L-D105N [6]; hGPR17L-D105N
  fold less potent calcium response vs hGPR17L-WT: 6–7 fold
  reduction of efficacy of calcium response vs hGPR17L-WT: approximately 70%
hGPR17L-D105N [6]; hGPR17L-D105N, HEK293
  Ca2+ Efficacy (% of WT Emax): 28 ± 4.5 % of WT Emax
hGPR17L-D105N [6]; hGPR17L-D105N, HEK293, calcium mobilization
  Ca2+ pEC50 ± SEM: 6.21 ± 0.11
hGPR17L-D105N [6]; read-out: Ca2+ EC50, hGPR17L-D105N, HEK293, calcium mobilization
  EC50: 620 nM
hGPR17L-A131T; HEK293
  Ca2+ Efficacy (% of WT Emax): 109 ± 8.9 % of WT Emax
hGPR17L-A131T; HEK293, calcium mobilization
  Ca2+ pEC50 ± SEM: 6.63 ± 0.08
hGPR17L-A131T; [9]
  EC50: 230 nM
hGPR17L-R248Q; HEK293
  Ca2+ Efficacy (% of WT Emax): 103 ± 25 % of WT Emax
hGPR17L-R248Q; HEK293, calcium mobilization
  Ca2+ pEC50 ± SEM: 6.92 ± 0.02
hGPR17L-R248Q; [9]
  EC50: 120 nM
hGPR17L-V103M; HEK293
  Ca2+ Efficacy (% of WT Emax): 119 ± 8.4 % of WT Emax
hGPR17L-V103M; HEK293, calcium mobilization
  Ca2+ pEC50 ± SEM: 6.66 ± 0.09
hGPR17L-V103M; [9]
  EC50: 220 nM
hGPR17L-G136S [7]
  Emax: 3.6 ± 1.3%
hGPR17L-V96M [8]
  calcium mobilization in the presence of pertussis toxin: reduced calcium mobilization
hGPR17L-V96M [8]; hGPR17L-V96M
  fold less potent calcium response vs hGPR17L-WT: 6–7 fold
  reduction of efficacy of calcium response vs hGPR17L-WT: approximately 70%
hGPR17L-V96M [8]; hGPR17L-V96M, HEK293
  Ca2+ Efficacy (% of WT Emax): 31 ± 4.7 % of WT Emax
hGPR17L-V96M [8]; hGPR17L-V96M, HEK293, calcium mobilization
  Ca2+ pEC50 ± SEM: 6.27 ± 0.05
hGPR17L-V96M [8]; read-out: Ca2+ EC50, hGPR17L-V96M, HEK293, calcium mobilization
  EC50: 540 nM
